The structures appear in SMILES notation.

A word on the ED50: it is the midpoint of the dose-response relation. Read a low ED50 as an effect at a small dose.

For the experiment, the system named is Mus musculus. Put plainly: Protective activity of compound against lethal systemic infection by Staphylococcus aureus 8008 (MRSA) in ICR mice at 1 hr after subcutaneous administration. Type of experiment: functional. The note with it: sc.

Turning to `C[C@@H](O)[C@H]1C(=O)N2C(C(=O)O)=C(SCCNC=N)C[C@H]12` [IMIPENEM ANHYDROUS], the 50% effect level (ED50) was put at a dose of 7.02 mg/kg.

Values taken from ChEMBL document CHEMBL1130441, “Studies on -lactam antibiotics. Synthesis and antibacterial activity of novel 1-methylcarbapenems related to FR21818: 5-membered ring analogs” (1997).
